# Measurements taken from ChEMBL document CHEMBL3044608, “Synthesis and fungicidal activity of hydrazones containing 4-methylbenzo[d]thiazole moiety” (2012).
# Columns and labels:
# Assay type in all cases: functional
# Sclerotinia sclerotiorum = assay: microbe, parasite or virus in culture; details: read-out: GI
# Description: Fungicidal activity against Sclerotinia sclerotiorum assessed as inhibition rate of circle mycelium growth at 500 ug/ml
# Alternaria alternata = assay: microbe, parasite or virus in culture; details: read-out: GI
# Description: Fungicidal activity against Alternaria alternata assessed as inhibition rate of circle mycelium growth at 500 ug/ml
# Rhizoctonia solani [1] = assay: microbe, parasite or virus in culture; details: read-out: GI
# Description: Fungicidal activity against Rhizoctonia solani assessed as inhibition rate of circle mycelium growth at 500 ug/ml
# Ustilaginoidea = assay: microbe, parasite or virus in culture; details: read-out: GI
# Description: Fungicidal activity against Ustilaginoidea oryzae assessed as inhibition rate of circle mycelium growth at 500 ug/ml
# Phytophthora capsici = assay: microbe, parasite or virus in culture; details: read-out: GI
# Description: Fungicidal activity against Phytophthora capsici assessed as inhibition rate of circle mycelium growth at 500 ug/ml
# Fusarium graminearum = assay: microbe, parasite or virus in culture; details: read-out: GI
# Botrytis cinerea = assay: microbe, parasite or virus in culture; details: read-out: GI
# Description: Fungicidal activity against Botryotinia fuckeliana assessed as inhibition rate of circle mycelium growth at 500 ug/ml
# Rhizoctonia solani [2] = details: at 100 µg/mL
# Description: Fungicidal activity against Rhizoctonia solani assessed as inhibition rate of circle mycelium growth at 100 ug/ml relative to control
# Rhizoctonia solani [3] = details: at 400 µg/mL
# Description: Fungicidal activity against Rhizoctonia solani assessed as inhibition rate of circle mycelium growth at 400 ug/ml relative to control
# Rhizoctonia solani [4] = details: at 200 µg/mL
# Description: Fungicidal activity against Rhizoctonia solani assessed as inhibition rate of circle mycelium growth at 200 ug/ml relative to control
Compound,inhibition of growth at 500 µg/mL (Sclerotinia sclerotiorum),inhibition of growth at 500 µg/mL (Alternaria alternata),inhibition of growth at 500 µg/mL (Rhizoctonia solani [1]),inhibition of growth at 500 µg/mL (Ustilaginoidea),inhibition of growth at 500 µg/mL (Phytophthora capsici),inhibition of growth at 500 µg/mL (Fusarium graminearum),inhibition of growth at 500 µg/mL (Botrytis cinerea),Efficacy (Rhizoctonia solani [2]),Efficacy (Rhizoctonia solani [3]),Efficacy (Rhizoctonia solani [4])
Cc1cccc2sc(NN)nc12,16.2%,13.6%,0%,0%,0%,0%,22.3%,–,–,–
C/C(=N\Nc1nc2c(C)cccc2s1)c1ccc(F)cc1,28.1%,0%,0%,0%,0%,0%,0%,–,–,–
CC(C)=NNc1nc2c(C)cccc2s1,59.4%,47.8%,0%,20%,0%,0%,70.8%,–,–,–
CC/C(C)=N/Nc1nc2c(C)cccc2s1,87.5%,47.8%,90%,40%,0%,0%,70.8%,–,–,–
C/C(=N\Nc1nc2c(C)cccc2s1)c1ccccc1,31.3%,21.7%,0%,0%,0%,0%,0%,–,–,–
C/C(=N\Nc1nc2c(C)cccc2s1)c1c(F)cccc1F,0%,0%,95%,0%,0%,0%,0%,35%,65%,45%
C/C(=N\Nc1nc2c(C)cccc2s1)c1ccc(Cl)cc1,9.4%,0%,0%,0%,0%,0%,0%,–,–,–
C/C(=N\Nc1nc2c(C)cccc2s1)c1ccc(C)cc1,28.1%,0%,30%,5%,0%,0%,0%,–,–,–
C/C(=N\Nc1nc2c(C)cccc2s1)c1ccc([N+](=O)[O-])cc1,0%,0%,90%,0%,0%,0%,0%,–,–,–
C/C(=N\Nc1nc2c(C)cccc2s1)c1cccc(Cl)c1,43.8%,0%,0%,0%,0%,0%,0%,–,–,–
COc1ccccc1/C(C)=N/Nc1nc2c(C)cccc2s1,3.1%,0%,60%,0%,0%,0%,0%,–,–,–
COc1ccc(/C(C)=N/Nc2nc3c(C)cccc3s2)cc1,50%,30.4%,95%,0%,0%,0%,37.5%,10%,50%,20%
C/C(=N\Nc1nc2c(C)cccc2s1)c1ccc(Br)cc1,46.9%,0%,50%,0%,0%,0%,0%,–,–,–
C/C(=N\Nc1nc2c(C)cccc2s1)C(C)C,90.6%,56.5%,60%,5%,0%,0%,70.8%,–,–,–
Cc1cccc2sc(NN=C3CCCC3)nc12,62.5%,52.2%,85%,25%,0%,36.8%,70.8%,–,–,–
Cc1cccc2sc(NN=C3CCCCC3)nc12,43.8%,47.8%,0%,0%,0%,0%,66.7%,–,–,–
CCCC1COC(Cn2cncn2)(c2ccc(Cl)cc2Cl)O1 (stereo not drawn) [PROPICONAZOLE],87.5%,0%,90%,0%,0%,0%,0%,40%,90%,60%
Cc1cccc2sc3nncn3c12 [TRICYCLAZOLE],72.7%,0%,85%,0%,27.8%,13.6%,52.8%,22%,57%,33%
